According to ChEMBL document CHEMBL1140244, “Carbonic anhydrase inhibitors. Synthesis and inhibition of cytosolic/tumor-associated carbonic anhydrase isozymes I, II, and IX with boron-containing sulfonamides, sulfamides, and sulfamates: toward agents for boron neutron capture therapy of hypoxic tumors” (Bioorg Med Chem Lett, 2005):

Legend:
Carbonic anhydrase 1 = Carbonic anhydrase 1 (Homo sapiens, UniProt P00915)
Carbonic anhydrase 2 = Carbonic anhydrase 2 (Homo sapiens, UniProt P00918)
Carbonic anhydrase 9 = Carbonic anhydrase 9 (Homo sapiens, UniProt Q16790)

Chain of Carbonic anhydrase 1 (P00915 whole entry): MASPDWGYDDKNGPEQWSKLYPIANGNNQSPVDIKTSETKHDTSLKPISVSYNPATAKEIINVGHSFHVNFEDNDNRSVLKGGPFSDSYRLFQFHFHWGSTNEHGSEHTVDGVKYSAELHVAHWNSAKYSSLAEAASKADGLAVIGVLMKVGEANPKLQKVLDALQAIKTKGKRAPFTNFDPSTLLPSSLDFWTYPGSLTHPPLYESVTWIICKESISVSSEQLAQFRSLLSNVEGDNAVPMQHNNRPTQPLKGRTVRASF

| Ki (Carbonic anhydrase 1) [nM] | Ki (Carbonic anhydrase 2) [nM] | Ki (Carbonic anhydrase 9) [nM] | SMILES |
| --- | --- | --- | --- |
| 34 | 5.1 | 7.3 | CC1(C)OB(c2ccc(NC(=S)Nc3ccc(S(=O)(=O)Nc4nnc(S(N)(=O)=O)s4)cc3)cc2)OC1(C)C |
| 70 | 5.2 | 53 | CC1(C)OB(c2ccc(C(=O)Nc3ccc(S(N)(=O)=O)cc3)cc2)OC1(C)C |
| 36 | 3.1 | 7.6 | CC1(C)OB(c2ccc(C(=O)Nc3nnc(S(N)(=O)=O)s3)cc2)OC1(C)C |
| 72 | 5.1 | 89 | CC1(C)OB(c2ccc(NC(=S)Nc3ccc(S(N)(=O)=O)cc3Br)cc2)OC1(C)C |
| 69 | 5.1 | 80 | CC1(C)OB(c2ccc(NC(=S)Nc3ccc(S(N)(=O)=O)cc3)cc2)OC1(C)C |
| 92 |  | 81 | CC1(C)OB(c2ccc(NS(N)(=O)=O)cc2)OC1(C)C |
| 94 | 32 | 80 | CC1(C)OB(c2ccc(OS(N)(=O)=O)cc2)OC1(C)C |
| 70 | 5.5 | 81 | CC1(C)OB(c2ccc(NC(=S)Nc3cccc(S(N)(=O)=O)c3)cc2)OC1(C)C |
| 91 | 9.8 | 9.3 | CC1(C)OB(c2ccc(NC(=S)Nc3ccc(S(N)(=O)=O)cc3I)cc2)OC1(C)C |
| 77 | 5.1 | 10.1 | CC1(C)OB(c2ccc(N/C(S)=N/c3ccc(S(N)(=O)=O)cc3F)cc2)OC1(C)C |
| 69 | 5.4 |  | CC1(C)OB(c2ccc(C(=O)NCc3ccc(S(N)(=O)=O)cc3)cc2)OC1(C)C |
| 49 | 6.3 | 84 | CC1(C)OB(c2ccc(N/C(S)=N/c3ccc(S(=O)(=O)Nc4ccc(S(N)(=O)=O)cc4)cc3)cc2)OC1(C)C |
| 70 | 5.1 | 42 | CC1(C)OB(c2ccc(C(=O)NCCc3ccc(S(N)(=O)=O)cc3)cc2)OC1(C)C |

| SMILES | Ki (Carbonic anhydrase 1) [nM] | Ki (Carbonic anhydrase 2) [nM] | Ki (Carbonic anhydrase 9) [nM] |
| --- | --- | --- | --- |
| CC1(C)OB(c2ccc(N/C(S)=N/c3ccc(S(N)(=O)=O)cc3Cl)cc2)OC1(C)C | 70.5 | 5 | 81 |
